The values below come from patent US20210009583A1, “DEUTERATED IMIDAZOPYRIDINES” (UNIVERSITY OF NOTRE DAME DU LAC, priority 2018, published 2021).

Data set [1] in a line: Body weight at gross necropsy after 4 weeks of treatment (chronic model). Format: in vivo, Balb/c mouse. The following applies: Group 8, INH, individual mice. The protocol:
When evaluated in the “Chronic Balb/c mouse model” of M. tuberculosis infection by the method of Lenaerts, A. J., et. al. 2005. Preclinical testing of the nitroimidazopyran PA-824 for activity against M. tuberculosis in a series of in vitro and in vivo models. AAC. 49(6):2294-301. ND-012101 at 200 mg/kg and ND-012101(100 mg/kg)+ABT (100 mg/kg) both achieved 100% mouse survival after 4 weeks of oral dosing.

Another data set concerns M. tuberculosis. In words: Chronic Balb/c mouse model of M. tuberculosis infection. Format: in vivo.
A further data set concerns TB infection. The conditions noted are these: cited from earlier work.
Data set [2] in a line: Single dose pharmacokinetic study after oral administration, with and without ABT pre-dosing. Format: in vivo, female Balb/c mice. Here is the method:
Based on MIC and acute toxicity data, two compounds ND-011176 and a deuterated analog ND-012101 were selected for evaluation in a single dose pharmacokinetic study (with and without pre-dosing of 1-Aminobenzotriazole, ABT) after oral administration to female Balb/c mice.
All animals were administered with the prepared test article via oral gavage at a target dose level of 200 mg/kg and at the dose volume detailed in the table 1 below. Each animal in Groups 2, 4, 6, 8 and 10 received a dose of ABT (100 mg/kg) via oral gavage two hours prior to Test Article administration.
Whole blood samples (0.1 mL each) were collected at the first time point via submandibular vein (SMV), or an appropriate peripheral vein if it was necessary. Up to 0.5 mL of whole blood was collected at terminal blood collection via intra cardiac puncture (ICP). For animals 1-3 from each of the 10 Groups, blood samples were collected at 0.5 and 4 hours after oral dosing. […]
The plasma samples and dose formulation samples were analyzed by the Testing Facility to determine the concentration of the test article using LC-MS/MS. PK parameters were estimated from the plasma concentration-time data by standard non-compartmental methods utilizing suitable analysis software.

Where [3] appears, read: 5 h (mean of the "8" and "12" TP samples taken before euthanasia), PO 200 mg/kg + 100 mg/kg ABT.
The mark [4] stands for this setting: female, Balb/c, mouse, in vivo, po, 200 mg/kg.
Where [5] appears, read: mouse, in vivo, female Balb/c mice, single oral dose 200 mg/kg, no ABT.

Each structure is given as a SMILES string. “And” between values parts separate entries of the source, which are not always exact repeats. Equal entries are not always repeated. Where two headings read alike, the source gives them in different places. Marks after values point to notes of the source that are not given here.

With `NNC(=O)c1ccncc1` [INH, Isoniazid, reference compound], the Weight in data set [1] was 19.6 and 20.2 and 20.1 and 19.9 and 19.2 and 20.8. Moreover, the “Spleen, gross necropsy observation” value in the data set on M. tuberculosis (Group 8, INH, after 4 weeks of treatment, individual mice) is listed as “enlarged”. Moreover, in the data set on M. tuberculosis (INH (25), 4 Week Treatment), the “Lung Log10 CFU ± SEM” value was 4.06 ± 0.11 Log10 CFU and the “Spleen Log10 CFU ± SEM” value is reported as 2.13 ± 0.12^a Log10 CFU. For the same compound, the “Log reduction vs CTL (Lg)” value in the data set with M. tuberculosis (lung, INH (25), 4 Week Treatment) was determined as 1.73. In the data set with M. tuberculosis (spleen, INH (25), 4 Week Treatment), the “Log reduction vs CTL (Sp)” value was determined as 2.87.

Turning to `Cc1ccc2nc(C)c(C(=O)NCc3ccc(C(F)(F)F)cc3)n2c1` [ND-011176], the “cfu reduction with respect to non-treated controls” value in the data set on TB infection (300 mg/kg) and in the data set with TB infection (500 mg/kg) was 2 log cfu in each case. For the same compound, the Signs of toxicity entry with TB infection (any of the administered doses) is reported as “No signs of toxicity”. In addition, the “Drug plasma concentration, individual mice” value is 18100 ng/mL and 22600 ng/mL in data set [2] (0.5 h, PO 200 mg/kg + 100 mg/kg ABT); 5140 ng/mL and 7170 ng/mL in data set [2] (0.5 h, PO 200 mg/kg, no ABT, 200 mg/kg); 29300 ng/mL and 38200 ng/mL in data set [2] (2 h, PO 200 mg/kg + 100 mg/kg ABT); 5280 ng/mL and 4450 ng/mL in data set [2] (2 h, PO 200 mg/kg, no ABT, 200 mg/kg); 34700 ng/mL and 44900 ng/mL in data set [2] (4 h, PO 200 mg/kg + 100 mg/kg ABT); 432 ng/mL and 507 ng/mL in data set [2] (4 h, PO 200 mg/kg, no ABT, 200 mg/kg). The “Drug plasma concentration, individual mice” value in data set [2] (setting [3]) was 39200^^ ng/mL and 41600^^ ng/mL and 44050^^ ng/mL; in data set [2] (8 h, PO 200 mg/kg, no ABT, 200 mg/kg) it was 110 ng/mL and 25 ng/mL and 88.2 ng/mL; in data set [2] (12 h, PO 200 mg/kg, no ABT, 200 mg/kg), “BQL and 28.8 ng/mL”; in data set [2] (24 h, PO 200 mg/kg, no ABT, 200 mg/kg) it was “BQL”. Further, in data set [2] (setting [3]), the “Drug plasma concentration, Average” value is on record as 41617^^ ng/mL. Further, in data set [2] (female Balb/c mice, single oral dose 200 mg/kg, no ABT), the “% AUC Extrap” value is reported as 0.00%. Besides, the concentration at 0.5 h is 20100 ng/mL in data set [2] (female, Balb/c, mouse, in vivo, 0.5 h, PO 200 mg/kg + 100 mg/kg ABT, read-out: Drug plasma concentration, Average); 19600 ng/mL in data set [2] (female, Balb/c, mouse, in vivo, 0.5 h, PO 200 mg/kg + 100 mg/kg ABT, read-out: Drug plasma concentration, individual mice); 6730 ng/mL in data set [2] (female, Balb/c, mouse, in vivo, po, 200 mg/kg, 0.5 h, PO 200 mg/kg, no ABT, read-out: Drug plasma concentration, Average); 7880 ng/mL in data set [2] (female, Balb/c, mouse, in vivo, po, 200 mg/kg, 0.5 h, PO 200 mg/kg, no ABT, read-out: Drug plasma concentration, individual mice). Further, the concentration at 2 h is 34600 ng/mL in data set [2] (female, Balb/c, mouse, in vivo, 2 h, PO 200 mg/kg + 100 mg/kg ABT, read-out: Drug plasma concentration, Average); 36400 ng/mL in data set [2] (female, Balb/c, mouse, in vivo, 2 h, PO 200 mg/kg + 100 mg/kg ABT, read-out: Drug plasma concentration, individual mice); 6100 ng/mL in data set [2] (female, Balb/c, mouse, in vivo, po, 200 mg/kg, 2 h, PO 200 mg/kg, no ABT, read-out: Drug plasma concentration, Average); 8580 ng/mL in data set [2] (female, Balb/c, mouse, in vivo, po, 200 mg/kg, 2 h, PO 200 mg/kg, no ABT, read-out: Drug plasma concentration, individual mice). For the same compound, the concentration at 4 h in data set [2] (female, Balb/c, mouse, in vivo, 4 h, PO 200 mg/kg + 100 mg/kg ABT, read-out: Drug plasma concentration, Average) worked out at 44800 ng/mL; in data set [2] (female, Balb/c, mouse, in vivo, 4 h, PO 200 mg/kg + 100 mg/kg ABT, read-out: Drug plasma concentration, individual mice), 54800 ng/mL; in data set [2] (female, Balb/c, mouse, in vivo, po, 200 mg/kg, 4 h, PO 200 mg/kg, no ABT, read-out: Drug plasma concentration, Average), 600 ng/mL; in data set [2] (female, Balb/c, mouse, in vivo, po, 200 mg/kg, 4 h, PO 200 mg/kg, no ABT, read-out: Drug plasma concentration, individual mice) it was 861 ng/mL. In addition, the “AUC(0-x)/Dose” value in data set [2] (setting [4]) came out at 78.4 ng·h/mL/mg/kg. For the same compound, in data set [2] (setting [4]), the “AUC(0-∞)/Dose” value was found to be 78.4 ng·h/mL/mg/kg. Further, in data set [2] (setting [4]), the Cmax/Dose is reported as 34 ng/mL/mg/kg. Moreover, the concentration at 8 h in data set [2] (female, Balb/c, mouse, in vivo, po, 200 mg/kg, 8 h, PO 200 mg/kg, no ABT, read-out: Drug plasma concentration, Average) was found to be 74 ng/mL. Moreover, the concentration at 12 h in data set [2] (female, Balb/c, mouse, in vivo, po, 200 mg/kg, 12 h, PO 200 mg/kg, no ABT, read-out: Drug plasma concentration, Average) came to 34 ng/mL; in data set [2] (female, Balb/c, mouse, in vivo, po, 200 mg/kg, 12 h, PO 200 mg/kg, no ABT, read-out: Drug plasma concentration, individual mice) it was 40.1 ng/mL. For the same compound, the concentration at 24 h in data set [2] (female, Balb/c, mouse, in vivo, po, 200 mg/kg, 24 h, PO 200 mg/kg, no ABT, read-out: Drug plasma concentration, Average) was determined as 8 ng/mL; in data set [2] (female, Balb/c, mouse, in vivo, po, 200 mg/kg, 24 h, PO 200 mg/kg, no ABT, read-out: Drug plasma concentration, individual mice) it was 8.09 ng/mL. Besides, the peak concentration (Cmax) in data set [2] (mouse, in vivo, female Balb/c mice, single oral dose 200 mg/kg, ABT 100 mg/kg PO 2 h before, manually added from the TA concentration data) is 44800 ng/mL; in data set [2] (setting [5]), 6730 ng/mL. Moreover, the AUC(0-inf) in data set [2] (setting [5]) is 15700 ng·h/mL. The Tmax in data set [2] (setting [5]) came to 0.5 h. The same compound had a half-life in data set [2] (setting [5]) of 1.7 h. The AUC in data set [2] (mouse, in vivo, female Balb/c mice, single oral dose 200 mg/kg, no ABT, read-out: AUC(0-x)) amounted to 15700 ng·h/mL.
